Experimental findings from patent US5929027A, “Physiologically active polypeptide-containing pharmaceutical composition” (priority 1991, dated 1999) are described below.

SMILES strings stand for the structures.

The test system of data set [1] is calcium and phosphur in blood. Kind of data set: Experiment 11: blood calcium and phosphur concentration after sublingual rapidly soluble composition. The class given is in vivo. The note with it: Beagle dog, tartaric acid 10 w/v % + S-570 2 w/v %, FIG. 8. An excerpt: The results are shown in the accompanying FIG. 8.
The nature of another data set: in vivo. To be noted: male, Beagle, dog, serum, 1 mg, Maximum blood concentration of human calcitonin in average (pg/ml), sublingual rapidly soluble composition. On the procedure: Each one of the test material was administered by a sublingual route to a male Beagle dog which fasted over-night, and the blood was collected at intervals (after 10, 20, 30, 45 and 60 minutes). After the serum was separated, the calcium concentration in serum was measured with Calcium C kit (manufactured by Wako Junyaku K. K., Japan) (n=3).
In the same manner as in Experiment 8, the test material was administered to the dog, and the blood was collected at intervals. After the serum was separated, the human calcitonin concentration in serum was measured by RIA.

For data set [2] the following is noted: Beagle dog, sublingual, tartaric acid 10 w/v % + S-570 2 w/v %, FIG. 8.

As a reminder, the Cmax is the maximum level reached in the sampled fluid or tissue. For `CC[C@H](C)[C@H](NC(=O)[C@H](C)NC(=O)[C@@H](NC(=O)[C@H](CCC(N)=O)NC(=O)[C@@H]1CCCN1C(=O)[C@H](Cc1ccccc1)NC(=O)[C@@H](NC(=O)[C@H](Cc1c[nH]cn1)NC(=O)[C@H](Cc1ccccc1)NC(=O)[C@H](CCCCN)NC(=O)[C@H](CC(N)=O)NC(=O)[C@H](Cc1ccccc1)NC(=O)[C@H](CC(=O)O)NC(=O)[C@H](CCC(N)=O)NC(=O)[C@@H](NC(=O)[C@H](Cc1ccc(O)cc1)NC(=O)[C@@H](NC(=O)CNC(=O)[C@H](CC(C)C)NC(=O)[C@H](CCSC)NC(=O)[C@@H]1CSSC[C@H](N)C(=O)NCC(=O)N[C@@H](CC(N)=O)C(=O)N[C@@H](CC(C)C)C(=O)N[C@@H](CO)C(=O)N[C@@H]([C@@H](C)O)C(=O)N1)[C@@H](C)O)[C@@H](C)O)[C@@H](C)O)[C@@H](C)O)C(=O)NCC(=O)N[C@H](C(=O)NCC(=O)N[C@@H](C)C(=O)N1CCC[C@H]1C(N)=O)C(C)C` [human calcitonin], in data set [1], the “concentration of calcium in blood” value is given as “lowered”. For the same compound, the “concentration of phosphur in blood” value in data set [1] is listed as “lowered”. The peak concentration (Cmax) was determined as 0.086 ng/mL in the data set “in vivo” (S-970 1.0 w/v %, citric acid 2.0 w/v %); 0.191 ng/mL in the data set “in vivo” (S-970 2.5 w/v %, citric acid 5.0 w/v %); 1.12 ng/mL in “in vivo” (S-970 5.0 w/v %, citric acid 10.0 w/v %); 1.65 ng/mL in the data set “in vivo” (S-970 10.0 w/v %, citric acid 20.0 w/v %). Besides, the “blood human calcitonin concentration” value in data set [2] is reported as “increase”.
